Data: patent US20050042747A1, “Hivgp120-induced bob/gpr15 activation” (priority 2001, published 2005)
“Also recorded” adds a separate entry of the source.

Tests used:
[1] = test system: gp120-induced calcium signaling in HT-29 cells; experiment: Inhibition of gp120-induced calcium signaling in HT-29 cells; assay type: cell-based, human; conditions: pretreatment
Method: (§1) Calcium studies were done on HT-29 cells and Ghost (3) cells loaded with Fluo 4. The cells were placed in Locke's buffer containing 5 μg/ml Fluo 4 AM ester (Molecular Probes) for 20 to 30 minutes, then in Locke's buffer for an additional 30 minutes before testing. Various concentrations of gp120IIIB (X4 trophic), gp120CM235 (R5 trophic), gp120mN (X4 trophic), gp12093TH975 (nonsyncytium-inducing primary isolate from an asymptomatic subject, trophism undetermined but likely R5), and gp120SF2 (X4R5 trophic), ranging from 10 nM to less than 1 pM, were added in Locke's buffer.^6 The gp120 proteins were obtained from the AIDS Research Reagent Referral Program. Some HT-29 cells were given one of the following pretreatments: 50 μg/ml anti-Bob37 overnight, 1 μg/ml pertussis toxin overnight, or 4.6 μg/ml U73122 for one hour. With the HT-29 cells only, similar tests were also performed with SDF-1, MIP-1α, MIP-1β, and RANTES rather than gp120. The cells were visualized every 4 seconds in a confocal microscope, using 488 nm argon laser excitation and detection filters appropriate for fluorescein-like dyes.
Blocking antibody experiments were done with HT-29 cells (monitoring calcium flux, microtubule loss, or transepithelial resistance), with Ghost (3) Bob cells (monitoring calcium flux) and peripheral blood mononuclear cells (monitoring calcium flux and HIV infection). Specifics of these protocols and the specific results are given herein. […] Antibody concentrations of 40 to 50 micrograms/ml overnight were needed for maximal effect.
(§2) For the first two or three days after plating, gp120 induces an immediate (within 4 seconds) calcium flux in undifferentiated HT-29 cells. The cells had previously been loaded with Fluo-4 AM ester (Molecular Probes, Eugene Oreg.) 5 micrograms/ml in the presence of Pleuronic F-127 0.02% in Locke's buffer for 30 minutes, then incubated at room temperature for an additional 30 minutes. Gp120IIIB was added while the cells were on an inverted confocal microscope using a 488 nm argon laser, with detection filters suitable for fluorescein-like dyes. […]

[2] = Interaction of synthetic Bob peptides with GalCer monolayer (surface pressure); assay type: binding, human; conditions: initial surface pressure 10 mN/m; at equilibrium; mean of three experiments ±SD
Method: Artificial membranes composed entirely of galactosyl ceramide with an alpha hydroxylated fatty acid were made. The surface pressure was measured with a microtensimeter (Kibron Inc., Finland) designed for the study of protein-lipid interactions. The peptides used for immunization were added to the subphase, and the surface pressure was continuously measured until equilibrium was reached. The increase in pressure was expressed in mN/m.
A monolayer of GalCer was prepared at the air-water interface at an initial surface pressure of 10 mN/m. The maximal surface surface pressure increase (Δπmax) reached at the equilibrium is indicated. The values are the mean of three separate experiments (±SD).
(§3) Galactosylceramide with an α-hydroxylated fatty acid (referred to as GalCer throughout this study) was either prepared from bovine brain (Sigma) or purified from HT-29-D4 membrane rafts (Fantini et al., 2000a). The surface pressure was measured with a microtensiometer (Kibron Inc., Finland) specially designed for studying protein-lipid interactions (Fantini et al., 2000a). The experiments were carried at 25° C. out in a laboratory equipped with a filtered air supply. A solution of GalCer was prepared extemporaneously in hexane:chloroform:methanol, 11:5:4 (v:v:v) at a concentration of 1 mg/ml. The lipid was carefully spread onto the meniscus of a pure water subphase (800 μl). The proteic ligand (GPR15/Bob peptides or HIV-1 gp120) was injected into the subphase with a 10 μl Hamilton syringe. The surface pressure was continuously measured as a function of time until reaching equilibrium corresponding to the maximal surface presure increase (Δπmax) expressed in mN/m.

HT-29 cells = experiment: Calcium signaling in HT-29 cells (Fluo 4, confocal microscope); assay type: cell-based, human
Method: HT-29 cells (from ATCC) were grown in DMEM-F12 with 10% bovine calf serum, and were used 24-48 hours after plating. The Ghost (3) cells were obtained from the AIDS Research and Reference Reagent Program, and were grown DMEM with 10% bovine calf serum supplemented with 500 μg/ml G418, 100 μg/ml hygromycin, and 1 μg/ml puromycin.^27 These cells were used 24 to 96 hours after plating.
as §1, §2

[3] = GalCer-gp120 interactions at the air-water interface (surface pressure); assay type: binding; conditions: gp120 5 nM in aqueous subphase
Method: A monomolecular film of GalCer was prepared at the air-water interface and gp120 purified from either IIIB (full squares), SEN (open circles) or 89.6 (full circles) isolates was added in the aqueous subphase at a concentration of 5 nM. The kinetics of the surface pressure increase induced by the viral glycoproteins are shown.
as §3
In a recent study, it was shown that the interaction between GalCer and gp120 purified from HIV-1(IIIB) was very efficient, whereas gp120s from 89.6 and SEN isolates interacted very weakly (Hammache et al., 1998). The kinetics of this interaction are an important physicochemical parameter allowing the direct comparison of GalCer recognition by various gp120s. In the experiment shown in FIG. 11, gp120 purified from IIIB, SEN, or 89.6 was injected underneath a monomolecular film of GalCer at the air-water interface. The GalCer film mimics the topology of a GalCer raft as it is organized in the external leaflet of the plasma membrane. For this reason, the Langmuir film balance technique is one of the most sensitive and reliable for studying protein-glycolipid interactions (Maggio et al., 1994). […] The surface increase indicates a condensing effect of the gp120 on the lipidic film due to its interaction with GalCer molecules (Hammache et al., 1998). […] At this time however, the level of interaction indicated by the absolute increase of the surface pressure was identical to the one of gp120(IIIB). […] The GalCer-binding capacity of gp120(SEN) was reevaluated and shown to occur much more slowly, but not less efficiently, than of gp120(IIIB).

HT-29-D4 cells = experiment: Transepithelial resistance (TEER) of differentiated HT-29-D4 cells; assay type: cell-based, human; conditions: electrophysiological medium
CCR5 = molecular target: T1, CCR5 (Homo sapiens, UniProt P51681); experiment: gp120-induced calcium flux, Ghost (3) cells transfected with CCR5; assay type: cell-based; design: key: — = no calcium flux seen at any dilution tested; conditions: Ghost (3) CCR5 cells
T1 construct: host or cells: Ghost (3) cells (human osteosarcoma, CD4+)
Method: as §1
(§4) Human osteosarcoma cell lines were transfected to express CD4, one or another of the HIV coreceptors, and a Green Fluorescent Protein reporter for active HIV infection, for the purpose of testing which of the known coreceptors was used to induce HIV infection by a given HIV strain (Morner A. J Virol 73:2343-9, 1999 and Deng K Nature 388:296-300, 1997). These cells were obtained from the AIDS Research and Reference Reagent Program, courtesy of Dr. Vineet KewalRamani and Dr. Dan Littman. These cells were grown in DMEM with 10% bovine calf serum supplemented with 0.5 mg/ml G418, 0.1 mg/ml hygromycin, and 1 microgram/ml puromycin, and were used at low passage number (less than 10). We have discovered that these cell lines are also activated by gp120 of certain viral strains, inducing a calcium flux in these cells.
(§5) Within 4 days of plating, coreceptor-transfected Ghost (3) cells (as well as the parent cell line not transfected to express any HIV coreceptors as a control) were put in Locke's medium, then treated with Fluo-4 (5 micrograms/ml for 30 minutes at 37° C.). After an additional 30 minute incubation in Locke's buffer at room temperature, the cells were examined in a confocal microscope while gp120 of various viral strains was added, and the cells were examined at 4 second intervals to look for a gp120-induced calcium flux. The results are given in the following table, expressed as the minimal concentration of gp120 resulting in a significant calcium flux. “−” means that no reproducible calcium flux was observed. “ND” means that the gp120 of that viral strain was not tested with the stated coreceptor. […]

Bob = molecular target: T2, Bob (Homo sapiens, UniProt P49685); experiment: gp120-induced calcium flux, Ghost (3) cells transfected with Bob (Fluo-4); assay type: cell-based; design: key to minimal concentration of gp120 resulting in a significant calcium flux: — = no calcium flux seen at any dilution tested
T2 construct: host or cells: Ghost (3) cells (human osteosarcoma, also transfected with CD4 and a GFP reporter)
T2 sequence (P49685 1-360): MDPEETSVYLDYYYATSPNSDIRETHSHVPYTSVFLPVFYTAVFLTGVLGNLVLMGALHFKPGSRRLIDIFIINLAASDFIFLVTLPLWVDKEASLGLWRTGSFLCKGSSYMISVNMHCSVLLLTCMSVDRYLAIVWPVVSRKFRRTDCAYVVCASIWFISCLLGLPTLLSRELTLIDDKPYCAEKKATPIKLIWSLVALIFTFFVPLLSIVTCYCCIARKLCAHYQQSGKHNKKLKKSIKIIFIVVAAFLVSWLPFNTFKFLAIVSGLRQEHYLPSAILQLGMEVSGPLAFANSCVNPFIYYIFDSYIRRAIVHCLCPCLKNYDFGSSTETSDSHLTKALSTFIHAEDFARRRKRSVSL
Method: as §1, §4
Within 4 days of plating, coreceptor-transfected Ghost (3) cells (as well as the parent cell line not transfected to express any HIV coreceptors as a control) were put in Locke's medium, then treated with Fluo-4 (5 micrograms/ml for 30 minutes at 37° C.). After an additional 30 minute incubation in Locke's buffer at room temperature, the cells were examined in a confocal microscope while gp120 of various viral strains was added, and the cells were examined at 4 second intervals to look for a gp120-induced calcium flux. The results are given in the following table, expressed as the minimal concentration of gp120 resulting in a significant calcium flux. “−” means that no reproducible calcium flux was observed. “ND” means that the gp120 of that viral strain was not tested with the stated coreceptor.
These cells were treated with serial dilutions (100 or 250 nM to at least 1 pM, or even less if calcium fluxes were noted) of gp120. Gp120s from each of four HIV-1 strains: IIIB, CM235, SF2, and […] were used. Listed is the greatest dilution which induced a significant, reproducible calcium flux. The parental line is known to express CXCR4 at very low levels. Those results indicated by an asterisk are thought to represent this artifact.

[4] = test system: Ghost (3) parental cell line; experiment: gp120-induced calcium flux, Ghost (3) parental cell line; assay type: cell-based, human; design: key: — = no calcium flux seen at any dilution tested; conditions: Ghost (3) parental line
Method: as §1, §4, §5

CXCR4 = molecular target: T3, CXCR4 (Homo sapiens, UniProt P61073); experiment: gp120-induced calcium flux, Ghost (3) cells transfected with CXCR4; assay type: cell-based; design: key: — = no calcium flux seen at any dilution tested; conditions: Ghost (3) CXCR4 cells
T3 construct: host or cells: Ghost (3) cells (human osteosarcoma, CD4+)
Method: as §1, §4, §5

[5] = test system: peripheral blood mononuclear cells; experiment: gp120-induced calcium flux in peripheral blood mononuclear cells; assay type: cell-based, human; conditions: for inhibition of gp120IIIB-induced calcium flux, in words: pretreatment
Method: Normal human peripheral blood mononuclear cells were isolated by Ficoll gradient centrifugation, and loaded with the calcium sensitive dye Fluo-4. HIV gp120IIIB induced strong calcium fluxes in the range of 7 nM to 50 pM, and there was a weaker signal at 5 pM.
Experiments corresponding to those with HT-29 cells were done with peripheral blood mononuclear cells. These were isolated from the blood of a healthy, HIV-uninfected person by a Ficoll-Hypaque techique (Histopaque, Sigma), then loaded with Fluo-4 by a technique nearly identical to that used for HT-29 cells, except that Hank's buffer was used rather than Locke's, and the cells were centrifuged (2,000 g for 10 minutes) just before calcium flux measurements to improve adherence. Gp120-induced calcium fluxes were documented with as little as 5 pM gp120IIIB.

T3 sequence (P61073 whole entry): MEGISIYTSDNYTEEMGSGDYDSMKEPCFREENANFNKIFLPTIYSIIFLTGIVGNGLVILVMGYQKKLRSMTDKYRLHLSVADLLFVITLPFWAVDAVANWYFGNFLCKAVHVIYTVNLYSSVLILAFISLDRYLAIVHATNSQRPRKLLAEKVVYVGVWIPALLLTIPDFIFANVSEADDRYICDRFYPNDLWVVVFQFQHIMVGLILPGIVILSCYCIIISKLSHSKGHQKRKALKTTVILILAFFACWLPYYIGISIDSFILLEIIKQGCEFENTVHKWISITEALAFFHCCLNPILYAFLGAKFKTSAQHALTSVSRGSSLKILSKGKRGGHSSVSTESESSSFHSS
T1 sequence (P51681 whole entry): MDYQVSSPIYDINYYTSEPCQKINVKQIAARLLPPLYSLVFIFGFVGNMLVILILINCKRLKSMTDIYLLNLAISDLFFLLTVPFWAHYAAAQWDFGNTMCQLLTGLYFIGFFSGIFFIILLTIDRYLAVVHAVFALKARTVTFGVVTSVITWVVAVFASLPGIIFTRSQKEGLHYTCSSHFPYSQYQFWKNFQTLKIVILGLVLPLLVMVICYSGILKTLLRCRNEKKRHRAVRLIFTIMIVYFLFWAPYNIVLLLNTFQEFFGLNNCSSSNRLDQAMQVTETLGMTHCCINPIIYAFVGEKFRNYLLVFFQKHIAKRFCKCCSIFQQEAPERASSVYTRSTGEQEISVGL

COc1ccc2c(c1)CC[C@@H]1[C@@H]2CC[C@]2(C)[C@@H](NCCCCCCN3C(=O)CCC3=O)CC[C@@H]12 [U73343]
inhibition of gp120-induced calcium signaling, in words [1]: no inhibitory effect and not

DKEASLGLWRTGSFLCK [P2, Bob peptide, first extracellular loop]
Δπ max [2]: 5.40 ± 1.52 mN/m

HAEDFARRRKRSVSL [P1, Bob peptide, internal C-ter domain]
Δπ max [2]: 1.89 ± 0.85 mN/m

KNYDFGSSTETSDSHLTK [P6, Bob peptide, internal C-ter domain]
Δπ max [2]: 2.67 ± 0.40 mN/m

MDPEETSVYLDYYYATS [P3, Bob peptide, extracellular N-ter end]
Δπ max [2]: 2.26 ± 0.12 mN/m

RELTLIDDKPYCAEKKAT [P5, Bob peptide, second extracellular loop]
Δπ max [2]: 6.86 ± 1.37 mN/m

SDF-1: natural ligand of CXCR4 [reference compound]
calcium signaling in HT-29 cells, in words (HT-29 cells): substantial calcium signal; also recorded: induced similar calcium signaling

SGLRQEHYLPSAILQ [P4, Bob peptide, third extracellular loop]
Δπ max [2]: 5.21 ± 1.06 mN/m

gp120(89.6): gp120 purified from primary isolate HIV-1(89.6)
interaction with GalCer film, in words [3]: very little association with GalCer | maximal surface pressure increase relative to IIIB and SEN [3]: less than 50% | TEER response, in words (HT-29-D4 cells): not observed | TEER response, in words (HT-29-D4 cells; listed as gp120 from 89.6): totally inactive

gp120MN: gp120 of HIV strain MN (X4 trophic)
minimal concentration of gp120 resulting in a significant calcium flux (CCR5): — | minimal concentration of gp120 resulting in a significant calcium flux (Bob; Ghost (3) Bob cells, 100 or 250 nM to at least 1 pM): — | Bob activation / calcium signals in Bob-transfected Ghost (3) cells, in words (Bob; listed as MN): do not activate Bob; also recorded: did not cause calcium signals | minimal concentration of gp120 resulting in a significant calcium flux [4]: — | minimal concentration of gp120 resulting in a significant calcium flux (CXCR4): —

heparin
inhibition of gp120IIIB-induced calcium flux ([5]; 15 minute preincubation of gp120IIIB with 40 micrograms/ml at 0-4° C., 200 nM gp120IIIB): 40 fold | inhibition of gp120IIIB-induced calcium flux, in words [5]: Inhibition | inhibition of gp120IIIB-induced calcium flux, in words ([5]; listed as sodium heparin): inhibited the calcium flux
